Reference: US12263248B2, “Compounds and compositions for intracellular delivery of therapeutic agents” (ModernaTX, Inc., priority 2018, dated 2025)

Tests used:
[1] = Particle size and polydispersity index of nanoparticle compositions (Zetasizer Nano ZS); type: physicochemical
Outline: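 Particle size and PDI were measured on a Zetasizer Nano ZS with the nanoparticle compositions dispersed in 1×PBS.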

[2] = Encapsulation efficiency of RNA (QUANT-IT RIBOGREEN RNA assay); type: physicochemical
Outline: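 RiboGreen fluorescence (ex ~480, em ~520 nm) compared between intact samples and Triton X-100-lysed samples after 15 min at 37 °C in TE buffer, pH 7.5. Percent free RNA is the blank-corrected intact/disrupted ratio.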

[3] = Apparent (surface) pKa of the LNP formulation (TNS assay); type: physicochemical; settings: for pKa: Table 1A
Outline: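 LNP (0.04 mg/mL mRNA) mixed with TNS reagent in 21 buffers spanning about pH 3-12, in triplicate; fluorescence plotted against pH as sigmoidal curve. Apparent pKa taken as […] curve inflection point; validated in 1× PBS and 20 mM Tris w/8% sucrose.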

luciferase (Luc) mRNA [4] = experiment: Luc expression, whole body bioluminescence after intravenous administration to mice; type: in vivo; settings: for Lipid/MC3 AUC / AUC (p/s * h): Table 3D; for AUC (p/s * h): Luc; for Total Flux 3 hours / Total Flux 6 hours / Total Flux 24 hours: mice, i.v., 0.5 mg/kg, Luc mRNA
Outline: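 Luc mRNA nanoparticle formulations given intravenously to mice (n=6) at 0.5 mg/kg; whole-body bioluminescence imaged at 3, 6 and 24 h. CD-1 mice received IP D-luciferin (200 μL of 15 mg/mL) 15 min before imaging; total flux quantified by region of interest.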

[5] = Lipid clearance: lipid level in mouse liver tissue (LC-MS/MS); type: in vivo; settings: Table 3D, intravenous
Method: Quantification of Lipid by LC-MS/MS: Liver samples were homogenized following addition of 19 eq. (w/v) of water (DF=20). Protein was precipitated and analyzed against calibration standards prepared in matching blank. Chromatographic separation and quantification was accomplished with a LC-MS/MS System. Samples were injected and separated via HPLC A triple-quadrupole MS/MS system operated in positive ion mode was used for signal detection.

luciferase (Luc) mRNA [6] = experiment: Luc expression in liver, lung, spleen and femur 6 hours after intravenous administration; type: in vivo; settings: mice, 0.5 mpk; for Total Flux Liver / Total Flux Lung / Total Flux Spleen: intravenous
Outline: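 LNP-formulated mRNA given IV to mice (n=3) at 0.5 mpk; at 6 h, bioluminescence imaged ex vivo 15 min after IP D-luciferin (15 mg/mL, 200 μL), organs imaged within 25 min. Values are total flux by region of interest.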

luciferase (Luc) mRNA [7] = experiment: Luc expression (total flux) after intramuscular administration; type: in vivo, mice; settings: Table 3H; intramuscular, Luc
Outline: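 Mice given a single intramuscular dose of lipid nanoparticle formulations carrying modified Luc mRNA, alone or with H10 mRNA, at 0.001 or 0.01 mpk total. Luciferase expression recorded as total flux.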

hEPO mRNA = experiment: hEPO expression after intravenous administration to rats; type: in vivo, rat; settings: Table 19B; for Lipid/MC3 AUC / Lipid/MC3 ([hEPO] ratio): relative to MC3; for [hEPO]: species, dose and time not given
Method: The expression of hEPO and cytokine induction in rats intravenously administered a nanoparticle composition at a dose of 2.0 mpk was measured at 6 h.
(§1) The expression of hEPO in rats intravenously administered a nanoparticle composition at a dose of 0.2 mpk or 2.0 mpk was measured at 6 hours. Table 16 summarize the ratio of hEPO expression levels using various nanoparticle compositions as compared to the hEPO expression level using MC3 formulation and the lipid levels in the liver measured 48 hours after administration, as described above. Tables 17 and 18 summarize the lipid levels in the liver and spleen measured 48 hours after administration of Compounds 28, 33, 53, and 54. Liver and spleen levels represent the average values calculated for 3 rats in each group. As is shown in Tables 17 and 18, less than 10% of Compounds 28, 33, 53, and 54 remained in the liver after 48 hours, while greater than 60% of MC3 remained.
The expression of hEPO induced by intravenous administration to rats of nanoparticle compositions at various doses was measured at 2, 4, 6, 8, 24, and 48 hour time points. FIGS. 3-6 respectively summarize the hEPO expression measured upon intravenous administration of formulations including Compounds 26, 18, 25, and MC3 to rat at various doses. The lipid levels of Compound 26 in the liver after 48 hours were about 19%.
(§2) 005781 The expression of hEPO and lipid levels in the liver and spleen in rats intravenously administered a nanoparticle composition at a dose of 0.2 mpk was measured at various time points. Compounds 18 and 25 were selected for comparison with MC3. Lipids were formulated according to the standard MC3 formulation described above. Rats were administered intravenously a single 0.2 mpk dose and expression monitored at 0.25, 0.5, 1, 2, 4, 8, 24, and 48 hours after administration.
Blood collection and analysis for hEPO. Blood was collected from mice or rats via the tail vein and hEPO concentrations were determined using a hEPO ELISA assay.

[8] = Residual lipid levels in rat liver and spleen (UPLC-MS); type: in vivo; settings: Table 19B, liver, 24 h
Method: At 48 h liver tissue was harvested for lipid quantification. To pre-weighed tissues, Milli-Q water was added (900 μL water per 100 mg tissue). Tissues were homogenized using an Omni probe homogenizer until uniform. 50 μL of samples and matrix calibration standards were aliquoted into a 96-well plate. 50 μL of blank matrix for matrix blanks and control blanks were aliquoted. 400 μL is spiking solution were manually added to all samples except matrix blanks. 400 μL of 50:50 ACN:IPA were manually added to matrix blanks. The plate was covered and the samples vortexed and centrifuged for 5 minutes at >3000 rpm. 200 μL of the samples were transferred into a clean 96-well plate for analysis. Samples were analyzed on a Waters Acquity UPLC using a Higgins Analytical Clipeus C8 column ([…], 30×2.1 mm) and a gradient of either 70-95% or 60-95% (Mobile Phase A: 5 mM ammonium formate in 50:50:1 H2O:MeOH:formic acid; Mobile Phase B: 5 mM ammonium formate in 100:1 MeOH:formic acid) over 1.3 min at 1.2 mL/min (column temperature 55° C.). Detection was based on electrospray ionization (ESI) in positive mode using a Sciex API5500 Mass Spectrometer.
as §1, §2

[9] = Table 1A, lipid:DSPC:cholesterol:PEG-DMG 50:10:38.5:1.5 mol %
[10] = second column (head also says 6 h)
[11] = Table 1B, formulated with hEPO mRNA

SMILES	PDI ([1]; Table 1A)	Size (nm) [1, 9] [nm]	EE (%) ([2]; Table 1A)	pKa [3]	Lipid/MC3 AUC (luciferase (Luc) mRNA [4]; intravenous)	AUC (p/s * h) (luciferase (Luc) mRNA [4]; intravenous)	Total Flux 3 hours (luciferase (Luc) mRNA [4])	Total Flux 6 hours (luciferase (Luc) mRNA [4])	Total Flux 24 hours (luciferase (Luc) mRNA [4])	% Dose Remaining in Liver 6 h [5, 10] [%]	% Dose Remaining in Liver 6 h [5] [%]	Total Flux Liver (luciferase (Luc) mRNA [6])	Total Flux Lung (luciferase (Luc) mRNA [6])	Total Flux Spleen (luciferase (Luc) mRNA [6])	PDI [1, 11]	Size (nm) [1, 11] [nm]	EE (%) [2, 11] [%]	AUC (hEPO) (hEPO mRNA) [pg·h/mL]	[hEPO] (hEPO mRNA) [pg/mL]	% dose remaining, liver, 24 h [8] [%]	further results
CCCCCCCCC(CCCCCCCC)OC(=O)CCCCCCCN(CCO)CCCCCCCC(=O)OCC(CCCCCCC)OC (stereo not shown) [Compound 148, Heptadecan-9-yl 8-((2-hydroxyethyl)(8-((2-methoxynonyl)oxy)-8-oxooctyl)amino)octanoate]	0.200	192.7	25.49	6.646	2.6	4.965E+011	6.28E+10	3.71E+10	1.43E+09	<1	<1	4.39E+09	3.27E+07	2.71E+09							Flux in the spleen (luciferase (Luc) mRNA [6]; i.v., in words): highest
CCCCCCCCC(CCCCCCCC)OC(=O)CCCCCCCN(C)CCCCCCCCCCCC(=O)OCCCCC [Compound 150, Pentyl 12-((8-(heptadecan-9-yloxy)-8-oxooctyl)(methyl)amino)dodecanoate]	0.082	63.1	96.72	6.101	1.4	2.704E+011	1.66E+10	2.31E+10	3.86E+08	<1	<1	1.54E+09	2.20E+06	3.43E+07							
CCCCCCCCCOC(=O)CCCCCCCN(CCO)CCCCCCCCCC(CCCCCCCC)CCCCCCCC [Compound 153, Nonyl 8-((2-hydroxyethyl)(10-octyloctadecyl)amino)octanoate]	0.150	83.7	98.39	6.580	1.4	2.697E+011	1.69E+10	2.28E+10	5.10E+08	<1	<1	1.18E+09	6.42E+06	1.42E+08							
CCCCCCCCCOC(=O)CCCCCCCN(CCCCCCCC(=O)OC(CCCCCCCC)CCCCCCCC)C(C)CO (stereo not shown) [Compound 157, Heptadecan-9-yl 8-((1-hydroxypropan-2-yl)(8-(nonyloxy)-8-oxooctyl)amino)octanoate]	0.093	61	96.04	6.275	1.3	2.481E+011	8.54E+09	2.22E+10	1.90E+08	<1	<1	2.27E+09	6.70E+06	5.15E+07							App. pKa ([3]; Table 3F): 6.27; Novel lipid/MC3 expression ratio, 6 hr. time point, i.v. (luciferase (Luc) mRNA [4]; luciferase, intravenous, relative to MC3 formulation): 1.29; AUC (p/s * h) (luciferase (Luc) mRNA [7]): 4.68E+08 p/s * h; Lipid/MC3 AUC (luciferase (Luc) mRNA [7]): 0.80
CCCCCCCCC(CCCCCCCC)OC(=O)CCCCCCCN(CCO)CCCCCCCCCC(=O)OCCCCCCC [Compound 189, Heptyl 10-((8-(heptadecan-9-yloxy)-8-oxooctyl)(2-hydroxyethyl)amino)decanoate]															0.16	95.5	93.9	4.35e+07	3.01e+06	0.00	Lipid/MC3 AUC (hEPO mRNA): 2.35
CCCCCCCCCOC(=O)CCCCCCCN(CCO)CCCCCC(=O)OC1CCC(CCCCC)CC1 (stereo not shown) [Compound 232, Nonyl 8-((2-hydroxyethyl)(6-oxo-6-((4-pentylcyclohexyl)oxy)hexyl)amino)octanoate]															0.23	150.3	76.3	73800	7024.114	0.00	Lipid/MC3 AUC (hEPO mRNA): <0.01
CCCCCCCCCOC(=O)CCCCCCCN(CCO)CCCCCCC(C)OC(=O)C(CCCCCCCC)CCCCCCCC (stereo not shown) [Compound 234, 8-((2-Hydroxyethyl)(8-(nonyloxy)-8-oxooctyl)amino)octan-2-yl 2-octyldecanoate]															0.22	96.3	94.7	5.17e+07	3.56e+06	0.03	
CCCCCCCCC(CCCCCCCC)OC(=O)CCCCCCCN(CCO)CCCCCC(=O)OC(C)CCCCCCCCOC(C)=O (stereo not shown) [Compound 235, Heptadecan-9-yl 8-((6-((10-acetoxydecan-2-yl)oxy)-6-oxohexyl)(2-hydroxyethyl)amino)octanoate]															0.24	228	40.9	1.71e+07	1.27e+06	0.06	Lipid/MC3 ([hEPO] ratio) (hEPO mRNA): 0.8601; Lipid/MC3 AUC (hEPO mRNA): 0.93
CCCCCCCCCOC(=O)CCCCCCCNCCCCCCCC(=O)OC(CCCCCCCC)CCCCCCCC [Compound 237]															0.15	82.5	99.3	4.09e+07	3.47e+06	0.14	
CCCCCCCCCOC(=O)CCCCCCCN(CCCCCCCC(=O)OC(CCCCCCCC)CCCCCCCC)CCCC(N)=O [Compound 243, Heptadecan-9-yl 8-((4-amino-4-oxobutyl)(8-(nonyloxy)-8-oxooctyl)amino)octanoate]															0.35	90.6	99.4	445000	40600	0.05	Lipid/MC3 ([hEPO] ratio) (hEPO mRNA): 0.02755; Lipid/MC3 AUC (hEPO mRNA): 0.02
